# Where two headings read alike, the source gives them in different places.
# Assays:
# [1] = in vivo; cited from earlier work
# Balb/c 3T3 fibroblasts = experiment: Biotransformation of SAL and metabolites in Balb/c 3T3 fibroblasts (LC-MS/MS); assay type: in vitro ADME, mouse; settings: 24 h (Figure 2B)
# Description: (§1) The HepG2 cell line was purchased from the American Type Culture Collection (ATCC® HB-8065™). The cells were cultured in Minimum Essential Medium Eagle (MEME) (Sigma–Aldrich Co. (St. Louis, MO, USA)). Normal murine embryonic fibroblasts, Balb/c 3T3 clone A31 cell line (gift from Department of Swine Diseases of the National Veterinary Research Institute in Pulawy) was cultured in Dulbecco’s Modified Eagle’s Medium (DMEM) (Invitrogen Corporations (Paisley, UK)). The media were supplemented with 10% BCS (Balb/c 3T3), 10% FBS (HepG2), 1% L-glutamine, and 1% antibiotic solution. The cells were maintained in 75 cm^2 cell culture flasks in humidified incubator at 37 °C, in an atmosphere of 5% CO2. […] The initial cell viability was determined with the trypan blue exclusion test. […]
# The medium samples from microplate wells were collected for identifying SAL metabolites and normalized to a cell number. An aliquot of 200 µL of each sample was measured to Eppendorf tube. […] The dry residue was reconstituted in 50% acetonitrile and analyzed with LC-MS/MS. […]
# SAL (m/z 773.4 to m/z 431.3) was monitored in multiple reaction monitoring (MRM) modes. […]
# The signals for further analysis were selected with the LightSight 2.3 software. […] These MRM transitions (with 20 chromatographic peaks) were then quantified with Multiquant 2.1. software. Quantitative analysis was performed for SAL. […]
# humans = settings: accidental poisoning: nausea, photophobia, limb weakness, tachycardia, muscle pain, mild rhabdomyolysis with myoglobinuria; cited from earlier work
# horses = settings: cited from earlier work
# Balb/c 3T3 cells = experiment: LDH leakage assay in Balb/c 3T3; assay type: cell-based; settings: Mus musculus, BALB/c3T3, Balb/c 3T3, LDH, mean ± SEM, n = 3, read-out: EC50 (effective concentration)
# Description: as §1
# The concentration ranges of the drugs were chosen according to their solubility and their plasma level. […] The cytotoxicity was assessed after 24 and 48 h of exposure of cell lines or after 12 and 24 h exposure of PHH. […]
# The integrity of the plasma membrane was assessed through the test of lactate dehydrogenase (LDH) release, which was monitored using a commercially available Cytotoxicity Detection Kit (LDH) (Roche Diagnostics, Basel, Switzerland). […] The absorbance was measured at 492 nm in a microplate reader using a blank as a reference.
# dogs = settings: chronic toxicity study in dogs; cited from earlier work
# [2] = mouse, in vivo; cited from earlier work
# cell lines = settings: cited from earlier work
smiles,measurement,setting,value
"CC[C@@H](C(=O)[C@@H](C)[C@@H](O)[C@H](C)[C@@H]1O[C@@H]([C@@H](CC)C(=O)O)CC[C@@H]1C)[C@H]1O[C@]2(C=C[C@@H](O)[C@]3(CC[C@@](C)([C@H]4CC[C@](O)(CC)[C@H](C)O4)O3)O2)[C@H](C)C[C@@H]1C [SAL, salinomycin]","unchanged SAL in excreta, share of administered dose",[1],2%
same,biotransformation of SAL,Balb/c 3T3 fibroblasts,no biotransformation
same,toxicity in a human,humans,severe toxicity
same,LD50,horses,0.6 mg/kg b.w.
same,EC50,Balb/c 3T3 cells; 24 h exposure,> 25 µg/mL
same,EC50,Balb/c 3T3 cells; 48 h exposure,23.1 ± 0.8 µg/mL
same,NOAEL (No Observed Adverse Effect Level),dogs,500 µg/kg b.w.
same,"unchanged SAL in excreta, share of administered dose",[2],2%
same,EC50,cell lines,0.1 to 30 µM
same,"EC50 values, cytotoxicity to cell lines",cell lines,0.08 to 22.5 µg/mL
